# Reference: US10813956B2, “Methods for making and using antimicrobial peptides” (REGENTS OF THE UNIVERSITY OF MINNESOTA, priority 2012, dated 2020)
# Entries after “also recorded” stand apart in the source; their conditions may differ. Residues, ends and D or L forms follow the SMILES beside them.
# Columns and labels:
# L. lactis IL1403 = test: MIC of synthetic AMPs, liquid growth inhibition microdilution assay; format: cell-based, Lactococcus lactis; conditions: synthetic peptide; for L. lactis growth inhibition: all concentrations tested (up to 1 mg/ml)
# Protocol: (§1) MICs of the synthetic AMPs were determined in triplicate by a liquid growth inhibition microdilution assays in flat-bottom sterile polypropylene 96-well plates (Maxisorp, Nunc, Roskilde, Denmark), in a final volume of 150 μl. The bacteria were diluted 2% in fresh media and grown to an OD600=0.5±0.05 (OD600=1≈10^9 cells/ml). The cells were diluted 50-fold to 10^7 cells/ml in fresh media. The AMP stocks were serially diluted (150 μl/well) in liquid growth media in a 96-well plate, covering a concentration range of 1,000 μg/ml-1 ng/ml. Briefly, 150 μl of the serially diluted AMPs were inoculated with 5 μl of the bacterial strains to achieve a final indicator concentration of 3×10^5 cells/ml. For each strain a row with no peptide was included as growth control, and for each test a row of medium-only wells was included as a sterility control. Plates were then incubated at 37° C. for 16-20 h without shaking, and growth inhibition was assessed measuring OD600 using a microplate reader (SpectraMax® Plus384; Molecular Devices, Sunnyvale, Calif., USA). MICs were identified as the lowest antimicrobial concentration where the OD600 […].
# Salmonella = test: Antimicrobial activity of supernatants from recombinant L. lactis (CFU/ml and OD600); format: cell-based
# Protocol: (§2) The loss of cell viability was monitored to determine the antimicrobial activity of the supernatants from the recombinant L. lactis strains. Briefly, 0.3 ml of fresh medium, individually inoculated with the target strains, was added to tubes containing 0.7 ml of the supernatants, to reach a final concentration of 1×10^3 cells/ml. As a control, a supernatant sample from the L. lactis strain containing only the expression vector pMSP3545 (C-SN) was used. Tubes were incubated at 37° C. with agitation. Samples were taken at 30 min, 2 and 6 h, and the number of colony forming units per ml (CFU/ml) was determined by plating 25 μl on LB agar plates. The plates were incubated for 16 h at 37° C., and the number of viable cells was assessed by counting CFUs. Additionally, the OD600 was monitored up to 15 h post-inoculation to follow the influence of AMPs on culture growth.
# (§3) Growth of pathogenic and non-pathogenic E. coli strains was assessed in medium containing these AMP-SNs while only pathogenic Salmonella strains were tested. In all cases, AMP-SNs diluted 7:3 with LB were inoculated with each indicator strain and growth was monitored spectrophotometrically at 600 nm for 15 hr.
# S. infantis = test: Antimicrobial activity of supernatants from recombinant L. lactis (culture titer); format: cell-based, Salmonella infantis; conditions: FIG. 3a; by 2 h post-inoculation
# Protocol: as §2, §3
# S. typhimurium = test: as above; format: cell-based, Salmonella typhimurium; conditions: FIG. 3a; by 2 h post-inoculation
# Protocol: as §2, §3
# E. coli [1] = format: cell-based, Escherichia coli
# Protocol: as §1
# E. coli [2] = test: Antimicrobial activity of supernatants from recombinant L. lactis (CFU/ml and OD600); format: cell-based, Escherichia coli; conditions: 6 h post-inoculation; supernatant of recombinant L. lactis; pathogenic and non-pathogenic E. coli
# Protocol: as §2, §3
SMILES,L. lactis growth inhibition (L. lactis IL1403),"Salmonella growth inhibition at longer times (Salmonella; 10-15 h post-inoculation, versus C-SN)",S. infantis culture density reduction relative to C-SN (S. infantis) [fold],S. typhimurium culture density reduction relative to C-SN (S. typhimurium) [fold],MIC against indicator E. coli strains (E. coli [1]) [µg/mL],Concentration up to which L. lactis remained viable (L. lactis IL1403; highest concentration tested) [mg/mL],E. coli culture density/concentration reduction relative to C-SN (E. coli [2]) [fold],Salmonella growth (rate) reduction relative to C-SN (Salmonella; 10 to 15 h post-inoculation) [%],S. infantis culture density/growth reduction relative to C-SN (fraction) (S. infantis)
"CC(C)C[C@H](NC(=O)[C@H](Cc1ccc(O)cc1)NC(=O)[C@@H]1CCCN1C(=O)[C@H](CCCNC(=N)N)NC(=O)[C@@H]1CCCN1C(=O)[C@H](CCCCN)NC(=O)[C@H](CC(=O)O)NC(=O)[C@@H]1CCCN1C(=O)[C@@H](N)CCCNC(=N)N)C(=O)N1CCC[C@H]1C(=O)N[C@@H](CCCNC(=N)N)C(=O)N1CCC[C@H]1C(=O)N[C@@H](CCCNC(=N)N)C(=O)N1CCC[C@H]1C(=O)N1CCC[C@H]1C(=O)N[C@@H](CCCNC(=N)N)C(=O)N1CCC[C@H]1C(=O)N[C@H](C(=O)N[C@@H](CCCNC(=N)N)C(=O)O)C(C)C [A3APO, A3APO (single chain)] (H-RPDKPRPYLPRPRPPRPVR-OH; N-terminus and C-terminus assumed)",not inhibited; also recorded: not achieved,not observed,20,4,–,–,–,–,–
"CC[C@H](C)[C@H](NC(=O)CNC(=O)[C@H](CCCCN)NC(=O)[C@@H](NC(=O)[C@H](CC(C)C)NC(=O)[C@H](CO)NC(=O)CNC(=O)[C@H](CC(C)C)NC(=O)CNC(=O)[C@H](C)NC(=O)[C@H](CCCCN)NC(=O)[C@H](Cc1ccccc1)NC(=O)[C@@H](NC(=O)[C@H](CC(=O)O)NC(=O)[C@H](CCCCN)NC(=O)[C@H](CC(C)C)NC(=O)CN)[C@@H](C)CC)C(C)C)C(=O)N[C@@H](C)C(=O)N[C@@H](C)C(=O)N[C@@H](Cc1c[nH]cn1)C(=O)N[C@H](C(=O)N[C@@H](C)C(=O)N[C@@H](CC(N)=O)C(=O)O)C(C)C [Alyteserin, Alyteserin-1a] (H-GLKDIFKAGLGSLVKGIAAHVAN-OH; N-terminus and C-terminus assumed)",not achieved,–,–,10,500,> 1,20,15,about one-half
